According to US12239654B2, “Compounds and methods for treating neurological and cardiovascular conditions” (Astrocyte Pharmaceuticals, Inc., priority 2016, dated 2025):
“Also recorded” adds a separate entry of the source.

Experiments:
[1] = system: mice subjected to traumatic brain injury (TBI); experiment: Traumatic brain injury (TBI) in mice, Western blot analysis for GFAP; assay type: in vivo, C57BL/6 mice; conditions: for efficacy in the mouse TBI model: summary statement, FIG. 12; for GFAP expression in brain (GFAP/actin, Western blot): 7 days post-injury, vs TBI untreated
Description: Animals and traumatic brain injury (TBI): TBI was performed with a controlled closed skull injury model as described in […] al. 2012 (J. Neurotrauma 30, 55-66). Following the method described therein, a pneumatic impact device was used to generate a moderate TBI leaving the skull and dura matter intact. To achieve this, C57BL/6 mice were anesthetized with isoflurane (3% induction, 1% maintenance) in 100% oxygen. A body temperature of 37° C. was maintained using a temperature-controlled heated surgical table. A small midline incision was made on the scalp using aseptic surgical techniques. A 5 mm stainless steel disc was positioned on the skull and fixed using superglue on the right parietal bone between bregma and lamda over the somatosensory cortex. The mouse was then positioned on a stage directly under the pneumatic impact tip. […] Scalp incisions were closed using 4-0 nylon braided suture and antibiotic ointment applied to the incision. Mice were placed in a Thermo-Intensive Care Unit (Braintree Scientific model FV-1; 37° C.; 27% 02) and monitored until fully awake and moving freely. […] Western Blot Analysis for GFAP: At selected survival times, mice were anesthetized under isoflurane and sacrificed. The brain was removed and placed on ice for dissection into impacted and non-impacted brain hemispheres. […] The homogenate was transferred to a 2 mL tube and centrifuged at 1000 g for 10 minutes at 4° C. and the supernatant was collected and analyzed. Protein concentration was determined by the BCA assay using a 1:50 dilution. 100 μg of protein was removed as an aliquot for each sample and Laemmli buffer containing β-mercaptoethanol added and the sample placed in a heat block for 3 minutes at 95° C. Samples were loaded on a 12% gel and ran at 80 V for 20 minutes followed by 40 minutes at 130 V. Samples were transferred to nitrocellulose membrane at 100 V for 1 hour. The membrane was blocked with 5% milk in TBS-T for 30 minutes. GFAP (1:1000-Imgenex IMG-5083-A) was added and placed at 4° C. overnight. The membrane was washed with TBS-T three times for 10 minutes. Secondary antibody for GFAP (Donkey anti-rabbit HRP conjugated (ImmunoJackson Laboratories; 711-035-152; 1:20000) was applied at room temperature for 1 hour. The membranes were washed with TB S-T for 15 minutes (3 times) and developed using the Western Lightning Plus-ECL kit (PerkinElmer, Inc.) following manufacturer's directions.

mice subjected to stroke = experiment: Photothrombosis-induced stroke in mice, TTC-stained brain infarction size; assay type: in vivo, C57Bl/6 mice; conditions: for efficacy in the mouse photothrombotic stroke model: summary statement; for size of brain infarctions in mice pretreated with A3 receptor antagonist MRS1523: MRS1523 2 mg/kg ip at 0 and 2 hour, treatment within 30 minutes of clot formation; for size of brain infarctions in mice pretreated with A3 receptor antagonist MRS1523 / size of the brain infarction (TTC staining): 24 hours; for size of the brain infarction (TTC staining): photothrombotic stroke mice, vs vehicle
Description: Photothrombosis-induced Stroke: Photothrombosis was performed as described in Zheng et al 2010 (PloS One 5 (12): e14401). In brief, Rose Bengal is a fluorescent dye that when injected into the vasculature and excited, generates singlet oxygen that damages the endothelial wall and induces a local thrombosis (clot). Using this technique, mice were given a 0.1 mL tail-vein injection of sterilized Rose Bengal (RB, Sigma, U.S.A.) in artificial cerebral spinal fluid (aCSF). The RB concentration was 20 mg/mL. A cortical region was centered in the imaging field and illuminated with a green laser (543 nm, 5 mW) using a 0.8-NA 40× water-immersion objective (Nikon, Tokyo). The clot formation was monitored in real time until the targeted vessel or downstream capillaries were firmly occluded. Stable clots were subsequently identified by a non-fluorescent vessel segmentation ending with highly fluorescent regions. […] Treatments, MRS4322 (0.16 mg/kg; 0.5 μmol/kg) or MRS2365 (0.24 mg/kg; 0.5 μmol/kg) were introduced via intraperitoneal injections (i.p.). For experiments with A3 receptor antagonist MRS1523, mice were administered intraperitoneal injections (2 mg/kg) at the 0 and 2 hour timepoints to ensure receptor antagonism throughout the course of the study.
Animals and Photothrombosis-induced Stroke: Stroke was performed as described in Zheng et al 2010 (PloS One 5 (12): e14401). Female C57Bl/6 mice (4-6 months) were used in this study. From the methods of this manuscript: Mice were anesthetized at 3% isoflurane with 100% oxygen and subsequently maintained at 1% isoflurane through a nosecone. Depth of anesthesia was monitored and regulated according to vital signs, pinch withdrawal and eye blinks. Body temperature was maintained at 37° C. by a feedback-controlled heating pad (Gaymar T/Pump). Vital signs including oxygen saturation, respiratory rate, and heart rate were continuously monitored by using the MouseOx system (STARR Life Sciences). The hair on each mouse's head was trimmed and a small incision was made in the scalp to expose the skull. A custom-made stainless steel plate was glued to the skull with VetBond Tissue Adhesive (3M, St Paul, MN). A cranial thinned-skull imaging window was created over the right primary somatosensory cortex (˜1.5 mm posterior to Bregma and 2 mm lateral from midline) depending on the experiment. In brief, a large region of the skull was first thinned with the electric drill and then further thinned with a surgical blade. The final thickness of the thinned skull was approximately 50 μm. After the cranial imaging window was created, mice were transferred to microscope stage and used for photothrombosis or imaging experiments. For the repeat imaging experiments, the plate was carefully detached from the skull and the scalp was sutured (Ethicon 6-0 sild suture). After each experiment, the mice were either returned to cages until the next timepoint or sacrificed. All procedures were approved by the Institutional Animal Care and Use Committee (IACUC) at University of Texas Health Science Center at San Antonio. Thirty minutes following stroke or sham (uninjured), mice were treated with either vehicle (saline) or drugs (MRS4322, MRS2365, MRS5698 or Cl-IBMECA).
Post photothrombotic infarction evaluation. The size of cerebral infarcts was evaluated using 2,3,5-Triphenyltetrazolium chloride (TTC) staining as described in Zheng et al 2010 (PloS One 5 (12): e14401). In brief, RB-induced lesions in brain slices were stained with TTC. TTC is a colorless dye that stains healthy brain tissue red when reduced by the mitochondrial enzyme succinyl dehydrogenase (Bederson J B et al., 1986). The absence of staining in necrotic tissue is then used to define the area of a brain infarction. Mice were sacrificed by cervical dislocation, their brains removed and then placed in ice cold HBSS for 3 minutes. The brain was subsequently transferred to a brain mold (KOPF), sliced into 1 mm sections and immersed in 2% TTC (5 min) at 37° C. […]

[2] = TBI mice, treated 30 min post-TBI, approximately 0.5 μmol/kg
[3] = 0.5 μmol/kg ip within 30 minutes of clot formation

Structure (SMILES)	efficacy in the mouse TBI model [1]	efficacy in the mouse photothrombotic stroke model (mice subjected to stroke)	GFAP expression in brain (GFAP/actin, Western blot) [1, 2]	size of brain infarctions in mice pretreated with A3 receptor antagonist MRS1523 (mice subjected to stroke)	size of the brain infarction (TTC staining) (mice subjected to stroke; [3])	GFAP levels in plasma relative to actin (Western blot) ([1]; TBI mice, treated 30 min post-TBI, approximately 0.5 μmol/kg, day 7, vs TBI untreated)	size of the brain infarction (TTC staining) (mice subjected to stroke; 100 ul of 100 uM ip within 30 minutes of clot formation)
CNC(=O)[C@H]1O[C@@H](n2cnc3c(NCc4cccc(I)c4)nc(Cl)nc32)[C@H](O)[C@@H]1O [Cl-IB-MECA, 2-Chloro-N^6-(3-iodobenzyl)-adenosine-5′-N-methyluronamide, reference compound]	weakly active	inactive					
CSc1nc(N)c2ncn([C@H]3[C@H](O)[C@H](O)[C@]4(COP(=O)(O)OP(=O)(O)O)C[C@H]34)c2n1 [MRS2365]			significantly lower; also recorded: decreased	not reduced	significantly reduced		
CSc1nc(N)c2ncn([C@H]3[C@H](O)[C@H](O)[C@]4(CO)C[C@H]34)c2n1 [MRS4322]	significant efficacy	significant efficacy	significantly lower; also recorded: decreased	not reduced; also recorded: reversed by MRS1523	significantly reduced; also recorded: reduced the effects of stroke infarction	significantly reduced	significantly reduced
